This is an account of results in patent US20260217708A1, “FUSED BENZAZEPINE DERIVATIVES FOR USE IN THE TREATMENT OF CANCER AND EPILEPSY” (UCB BIOPHARMA SRL, priority 2023, published 2026).

Test [1] concerns the target T1, system Xc^− (Homo sapiens, UniProt Q9UPY5).
T1 sequence (Q9UPY5 1-501): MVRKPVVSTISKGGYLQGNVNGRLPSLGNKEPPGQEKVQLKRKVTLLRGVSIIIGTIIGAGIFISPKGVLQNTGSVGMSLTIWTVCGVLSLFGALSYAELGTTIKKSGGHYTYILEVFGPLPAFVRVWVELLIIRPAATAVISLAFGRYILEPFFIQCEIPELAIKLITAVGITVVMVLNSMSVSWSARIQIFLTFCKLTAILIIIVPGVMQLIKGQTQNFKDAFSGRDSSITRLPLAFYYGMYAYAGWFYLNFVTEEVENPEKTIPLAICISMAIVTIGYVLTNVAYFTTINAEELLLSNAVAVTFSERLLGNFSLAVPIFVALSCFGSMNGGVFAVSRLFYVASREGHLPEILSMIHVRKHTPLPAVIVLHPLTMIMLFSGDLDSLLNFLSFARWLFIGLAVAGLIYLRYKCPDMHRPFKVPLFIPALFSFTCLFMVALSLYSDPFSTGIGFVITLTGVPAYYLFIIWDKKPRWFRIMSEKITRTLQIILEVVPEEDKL
T1 sequence (P08195 1-529 partner): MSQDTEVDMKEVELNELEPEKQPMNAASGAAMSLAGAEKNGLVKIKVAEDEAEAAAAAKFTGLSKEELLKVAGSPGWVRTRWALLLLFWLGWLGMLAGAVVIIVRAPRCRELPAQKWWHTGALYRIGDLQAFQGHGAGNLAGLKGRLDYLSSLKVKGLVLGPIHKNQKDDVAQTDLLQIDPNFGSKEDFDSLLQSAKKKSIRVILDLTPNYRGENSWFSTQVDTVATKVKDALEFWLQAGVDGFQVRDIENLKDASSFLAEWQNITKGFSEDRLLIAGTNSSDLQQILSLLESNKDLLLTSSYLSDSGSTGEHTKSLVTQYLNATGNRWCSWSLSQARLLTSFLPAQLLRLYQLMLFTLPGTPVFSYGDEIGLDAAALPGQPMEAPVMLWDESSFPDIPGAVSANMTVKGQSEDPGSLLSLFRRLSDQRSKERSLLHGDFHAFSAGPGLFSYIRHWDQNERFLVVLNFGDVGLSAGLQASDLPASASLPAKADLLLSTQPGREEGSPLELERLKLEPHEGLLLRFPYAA
Briefly: Cystine-induced glutamate release assay. Type of test: cell-based. More on the design: endogenous in cells; host or cells: H4 cells. The conditions noted are these: H4 cells, sodium-free HEPES buffer, 50 μM L-Cystine, 2 hours, Amplex Red glutamate readout; read-out: pIC50 Cystine-induced glutamate release assay (converted). In outline:
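IC50 (reported as pIC50) normalized to DMSO 1% and Erastin 50 μM controls, from Amplex Red fluorescence of glutamate exported into supernatant. H4 cells were washed into sodium-free buffer to exclude EAAT transport, then given compound with 50 μM L-cystine for 2 h in the incubator.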

The target in test [2] is T1, system Xc^−. The test is described as follows: [^14C]L-Cystine uptake assay. Type of test: cell-based. More on the design: endogenous in cells; host or cells: H4 cells. The settings on record: H4 cells, sodium-free HEPES buffer, 0.5 μM L-[14C]Cystine and 4.5 μM L-Cystine, 1 hour at 37° C.; read-out: pIC50 [^14C] L-Cystine uptake assay (converted). The procedure, abridged: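 Compound effect is given as pIC50, taken between controls of 1% DMSO and 50 μM Erastin. Human H4 cells were pretreated 15 min with compound in sodium-free buffer, then took up 0.5 μM [14C]cystine with 4.5 μM cold cystine for 1 hour at 37° C, read by scintillation proximity counting.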

Molecules are shown by their SMILES.

For `Cc1cc2c(c(F)n1)-c1cccnc1[C@@H](C)C(=O)N2CC(=O)Nc1ccc2c(cnn2C)c1` [#141, 2-[(10R)-3-fluoro-5,10-dimethyl-9-oxo-4,8,12-triazatricyclo[9.4.0.0^2,7]pentadeca-1(11),2(7),3,5,12,14-hexaen-8-yl]-N-(1-methylindazol-5-yl)acetamide], the IC50 in test [1] and in test [2] was 15.8 to 39.8 nM each time.

Regarding `Cc1cc2c(c(F)n1)-c1cccnc1[C@@H](C)C(=O)N2CC(=O)Nc1ccc(C2CC2)cc1` [#142, N-(4-cyclopropylphenyl)-2-[(10R)-3-fluoro-5,10-dimethyl-9-oxo-4,8,12-triazatricyclo[9.4.0.0^2,7]pentadeca-1(11),2(7),3,5,12,14-hexaen-8-yl]acetamide], the IC50 in test [1] was 15.8 to 39.8 nM; in test [2] it was below 15.8 nM.

As for `Cc1cc2c(c(F)n1)-c1cccnc1[C@@H](C)C(=O)N2CC(=O)Nc1ccc(C(F)(F)F)c(F)c1` [#143, 2-[(10R)-3-fluoro-5,10-dimethyl-9-oxo-4,8,12-triazatricyclo[9.4.0.0^2,7]pentadeca-1(11),2(7),3,5,12,14-hexaen-8-yl]-N-[3-fluoro-4-(trifluoromethyl)phenyl]acetamide], the results for the IC50 in test [1] and in test [2] were 15.8 to 39.8 nM and below 15.8 nM, respectively.

With `Cc1cc2c(c(F)n1)-c1cccnc1[C@@H](C)C(=O)N2CC(=O)Nc1ccc(C2CC2)c(F)c1` [#144, N-(4-cyclopropyl-3-fluoro-phenyl)-2-[(10R)-3-fluoro-5,10-dimethyl-9-oxo-4,8,12-triazatricyclo[9.4.0.0^2,7]pentadeca-1(11),2(7),3,5,12,14-hexaen-8-yl]acetamide], the IC50 in test [1] is 15.8 to 39.8 nM; in test [2] it was below 15.8 nM.

On to `Cc1cc2c(c(F)n1)-c1cccnc1[C@@H](C)C(=O)N2CC(=O)Nc1ccc(Br)cc1` [#145, N-(4-bromophenyl)-2-[(10R)-3-fluoro-5,10-dimethyl-9-oxo-4,8,12-triazatricyclo[9.4.0.0^2,7]pentadeca-1(11),2(7),3,5,12,14-hexaen-8-yl]acetamide], for which the IC50 in test [1] and in test [2] was below 15.8 nM in each case.

With `Cc1cc2c(c(F)n1)-c1cccnc1[C@@H](C)C(=O)N2CC(=O)Nc1ccc2c(c1)nnn2C` [#147, 2-[(10R)-3-fluoro-5,10-dimethyl-9-oxo-4,8,12-triazatricyclo[9.4.0.0^2,7]pentadeca-1(11),2(7),3,5,12,14-hexaen-8-yl]-N-(1-methylbenzotriazol-5-yl)acetamide], the IC50 is 39.8 to 100 nM in test [1] and 100 to 501 nM in test [2].

For the compound `Cc1cc2c(c(F)n1)-c1cccnc1[C@@H](C)C(=O)N2CC(=O)Nc1ccc2c(cnn2C(F)F)c1` [#148, N-[1-(difluoromethyl)indazol-5-yl]-2-[(10R)-3-fluoro-5,10-dimethyl-9-oxo-4,8,12-triazatricyclo[9.4.0.0^2,7]pentadeca-1(11),2(7),3,5,12,14-hexaen-8-yl]acetamide], the IC50 was 39.8 to 100 nM in test [1] and 15.8 to 39.8 nM in test [2].

As for `Cc1cc2c(c(F)n1)-c1cccnc1[C@@H](C)C(=O)N2CC(=O)Nc1ccc(C(C)(F)F)cc1` [#149, N-[4-(1,1-difluoroethyl)phenyl]-2-[(10R)-3-fluoro-5,10-dimethyl-9-oxo-4,8,12-triazatricyclo[9.4.0.0^2,7]pentadeca-1(11),2(7),3,5,12,14-hexaen-8-yl]acetamide], the IC50 in test [1] is 15.8 to 39.8 nM; in test [2] it was below 15.8 nM.

For the compound `Cc1cc2c(c(F)n1)-c1cccnc1[C@@H](C)C(=O)N2CC(=O)Nc1ccc(Cl)c(Cl)c1` [#150, N-(3,4-dichlorophenyl)-2-[(10R)-3-fluoro-5,10-dimethyl-9-oxo-4,8,12-triazatricyclo[9.4.0.0^2,7]pentadeca-1(11),2(7),3,5,12,14-hexaen-8-yl]acetamide], the figures for the IC50 in test [1] and in test [2] were 39.8 to 100 nM and 15.8 to 39.8 nM, respectively.

Turning to `Cc1cc2c(c(F)n1)-c1cccnc1[C@@H](C)C(=O)N2CC(=O)Nc1ccc(C(F)F)cc1` [#151], the IC50 in test [1] and in test [2] was below 15.8 nM throughout.

`Cc1cc2c(c(F)n1)-c1cccnc1C(CO)C(=O)N2CC(=O)Nc1ccc(C(F)(F)F)cc1` (stereo not drawn) [#152, 2-[3-fluoro-10-(hydroxymethyl)-5-methyl-9-oxo-4,8,12-triazatricyclo[9.4.0.0^2,7]pentadeca-1(11),2(7),3,5,12,14-hexaen-8-yl]-N-[4-(trifluoromethyl)phenyl]acetamide]: the IC50 in test [1] was 39.8 to 100 nM; in test [2] it was 15.8 to 39.8 nM.

On to `Cc1cc2c(c(C#N)n1)-c1cccnc1CC(=O)N2CC(=O)Nc1ccc(C(F)(F)F)cc1` [#153, 2-(3-cyano-5-methyl-9-oxo-4,8,12-triazatricyclo[9.4.0.0^2,7]pentadeca-1(11),2(7),3,5,12,14-hexaen-8-yl)-N-[4-(trifluoromethyl)phenyl]acetamide], for which the IC50 in test [1] and in test [2] was 15.8 to 39.8 nM throughout.

As to `Cc1cc2c(c(C#N)n1)-c1cccnc1C(C)C(=O)N2CC(=O)Nc1ccc(C(F)(F)F)cc1` (stereo not drawn) [#154, 2-(3-cyano-5,10-dimethyl-9-oxo-4,8,12-triazatricyclo[9.4.0.0^2,7]pentadeca-1(11),2(7),3,5,12,14-hexaen-8-yl)-N-[4-(trifluoromethyl)phenyl]acetamide], the IC50 in test [1] was 15.8 to 39.8 nM; in test [2], below 15.8 nM.

Take `Cc1cc2c(c(=O)[nH]1)-c1ccccc1C(C)C(=O)N2CC(=O)Nc1ccc(C(F)(F)F)cc1` (stereo not drawn) [#156, 2-(3,7-dimethyl-1,6-dioxo-2,7-dihydropyrido[4,3-d][3]benzazepin-5-yl)-N-[4-(trifluoromethyl)phenyl]acetamide]: the IC50 in test [1] is 15.8 to 39.8 nM; in test [2], 39.8 to 100 nM.

`COc1nc(C)cc2c1-c1cncnc1C(C)C(=O)N2CC(=O)Nc1ccc(C(F)(F)F)cc1` (stereo not drawn) [#157, 2-(15-methoxy-8,13-dimethyl-9-oxo-4,6,10,14-tetrazatricyclo[9.4.0.0^2,7]pentadeca-1(11),2(7),3,5,12,14-hexaen-10-yl)-N-[4-(trifluoromethyl)phenyl]acetamide]: the results for the IC50 in test [1] and in test [2] were 15.8 to 39.8 nM and below 15.8 nM, respectively.

For the compound `Cc1cc2c(c(F)n1)-c1cccnc1[C@@H](C)C(=O)N2CC(=O)Nc1ccc(Br)c(F)c1` [#158, N-(4-bromo-3-fluoro-phenyl)-2-[(10R)-3-fluoro-5,10-dimethyl-9-oxo-4,8,12-triazatricyclo[9.4.0.0^2,7]pentadeca-1(11),2(7),3,5,12,14-hexaen-8-yl]acetamide], the IC50 is 15.8 to 39.8 nM in test [1] and below 15.8 nM in test [2].

As for `COC1C(=O)N(CC(=O)Nc2ccc(C(F)(F)F)cc2)c2cc(C)nc(Cl)c2-c2cccnc21` (stereo not drawn) [#159, 2-(3-chloro-10-methoxy-5-methyl-9-oxo-4,8,12-triazatricyclo[9.4.0.0^2,7]pentadeca-1(11),2(7),3,5,12,14-hexaen-8-yl)-N-[4-(trifluoromethyl)phenyl]acetamide], the values for the IC50 in test [1] and in test [2] were 39.8 to 100 nM and 15.8 to 39.8 nM, respectively.

On to `Cc1cc2c(c(Cl)n1)-c1cncc(F)c1CC(=O)N2CC(=O)Nc1ccc(C(F)(F)F)cc1` [#160, 2-(3-chloro-12-fluoro-5-methyl-9-oxo-4,8,14-triazatricyclo[9.4.0.0^2,7]pentadeca-1(11),2(7),3,5,12,14-hexaen-8-yl)-N-[4-(trifluoromethyl)phenyl]acetamide], for which the IC50 in test [1] was 100 to 501 nM; in test [2], 15.8 to 39.8 nM.
